Measurements published in PubChem BioAssay (NCI).
Several values for one entry are separate records, joined by “and”; a condition that tells them apart may be missing. Equal values may be shown once.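 Step 1: Grow cells in 96-well plates. Step 2: Expose to compound for 48 hours at 5 concentrations. Step 3: Interpolate endpoints linearly; if unreached, use highest concentration. The concentration for 50% growth inhibition is given as GI50. Definition used: TGI = concentration required for complete inhibition of growth.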 *1 amine or outer side, *2 acyl side, *3 side chain or, on linkers, in order; H or OH if unused. Where a SMILES comes first, the peptide text is derived from it. Bridges are numbered along the chain shown (N, C = ends). [ ]: non-standard residue; d: D form. ξ: configuration not given here. X4 = CCC(C)C(N[*:1])C(O)CC(=O)O[C@H](C(=O)C(C)C(=O)[*:2])C(C)C; NMeY = CN[C@@H](Cc1ccc(O)cc1)C(=O)O; X9 = O=C([C@@H]1CC(O)CN1[*:1])[*:2]; ξNMeL = CNC(CC(C)C)C(=O)O; ξT = CC(O)C(N)C(=O)O

Legend:
Assay in all cases: DTP human tumour cell line panel, 48 h
ACHN renal = system: ACHN renal
HT29 colon = system: HT29 colon
MCF7 breast = system: MCF7 breast
OVCAR-5 ovarian = system: OVCAR-5 ovarian
SK-OV-3 ovarian = system: SK-OV-3 ovarian
SNB-75 CNS = system: SNB-75 CNS
TK-10 renal = system: TK-10 renal
HOP-92 NSCLC = system: HOP-92 NSCLC

Compound | GI50 (ACHN renal) | TGI (ACHN renal) | GI50 (HT29 colon) | TGI (HT29 colon) | GI50 (MCF7 breast) | TGI (MCF7 breast) | GI50 (OVCAR-5 ovarian) | TGI (OVCAR-5 ovarian) | GI50 (SK-OV-3 ovarian) | TGI (SK-OV-3 ovarian) | GI50 (SNB-75 CNS) | TGI (SNB-75 CNS) | GI50 (TK-10 renal) | TGI (TK-10 renal) | GI50 (HOP-92 NSCLC) | TGI (HOP-92 NSCLC)
COc1cc(C)cc2c1OC(c1ccccc1)CC2=O (configuration not stated) | > 100 µM | > 100 µM | > 100 µM | > 100 µM | > 100 µM | > 100 µM | > 100 µM | > 100 µM | > 100 µM | > 100 µM | > 100 µM | > 100 µM | > 100 µM | > 100 µM | – | –
Cn1cnc2c(F)c(Nc3ccc(Br)cc3Cl)c(C(=O)NOCCO)cc21 | 9.92 µM and 29 µM | > 100 µM | 0.0278 µM and 0.0265 µM | > 100 µM | > 100 µM | > 100 µM | – | > 100 µM | > 10 µM and 63.4 µM | > 100 µM | > 10 µM and 60.4 µM | > 100 µM | 0.183 µM and 1.62 µM | > 100 µM | 0.197 µM and 0.235 µM | 6.14 µM and 8.67 µM
OCCN(CO)CN(CN(CO)CCO)c1nc(N(CN(CO)CCO)CN(CO)CCO)nc(N(CN(CO)CCO)CN(CO)CCO)n1 | 1.73 ng/mL | 6.27 ng/mL | 0.911 ng/mL | 15.2 ng/mL | 0.55 ng/mL | 0.901 ng/mL | 2.02 ng/mL | 76.8 ng/mL | 1.26 ng/mL | 4.21 ng/mL | 0.723 ng/mL | 2.41 ng/mL | – | – | 1.56 ng/mL | 3.6 ng/mL
OCCNc1nc(NCCO)nc(Nc2ccc(C3=NN(c4cc(Cl)cc(Cl)c4)C(c4ccc(Cl)cc4)C3)cc2)n1 (configuration not stated) | 1.55 µM | 3.17 µM | – | – | 1.42 µM | 3.31 µM | 1.96 µM | 4.43 µM | 2.31 µM | 5.15 µM | 1.51 µM | 3.06 µM | 1.89 µM | 3.72 µM | 2.04 µM | 4.42 µM
C#Cc1cccc(NC(=O)Nc2ccc(NC(=O)CCl)cc2)c1 | 14 µM | 26 µM | 14.8 µM | 36.3 µM | 27.8 µM | > 82.5 µM | 14.3 µM | 28.2 µM | 15.5 µM | 33 µM | 8.39 µM | 19.1 µM | 21.8 µM | > 82.5 µM | – | –
CC1(C)OC2C(CO)OC(n3ccc(=O)[nH]c3=O)C2O1 (configuration not stated) | – | > 100 µM | – | – | – | > 100 µM | – | > 100 µM | – | > 100 µM | – | – | – | > 100 µM | – | > 100 µM
Cc1cccc(C(C)O)n1 (configuration not stated) | – | > 100 µM | – | > 100 µM | – | > 100 µM | – | > 100 µM | – | > 100 µM | – | > 100 µM | – | > 100 µM | – | –
COc1cc2c(/C=C3/C(=O)Nc4ccccc43)c(Cl)n(Cc3ccccc3)c2cc1C | > 100 µM | > 100 µM | – | – | > 100 µM | > 100 µM | > 100 µM | > 100 µM | > 100 µM | > 100 µM | – | – | > 100 µM | > 100 µM | > 100 µM | > 100 µM
COc1ccc2c(c1)[nH]c(=O)c1c3cccnc3cn21 | 0.082 µM | 13 µM | 0.03 µM | 0.168 µM | 0.0965 µM | 14.1 µM | 0.205 µM | > 100 µM | 0.0464 µM | > 52 µM | 0.031 µM | 57.3 µM | 0.056 µM | 18.8 µM | – | –
CNC(=O)c1cc(Oc2ccc3nc(NC(=O)Nc4ccc(Cl)c(Cl)c4)sc3c2)ccn1 | 2.1 µM | 5.56 µM | – | – | 2.65 µM | > 100 µM | – | – | 2.24 µM | 4.09 µM | 1.73 µM | 3.61 µM | 3.46 µM | 9.26 µM | 2.66 µM | 5.39 µM
Cn1c2ccccc2c2c(=O)n(CCCC(=O)NCC(=O)OC(=NC3CCCCC3)NC3CCCCC3)c3c(-c4ccccc4)nnn3c21 | 26.3 µM | > 100 µM | – | – | 3.62 µM | > 100 µM | 15.3 µM | 32.5 µM | – | – | – | – | > 100 µM | > 100 µM | – | –
O=c1cc/c(=N\Nc2ccccc2)c(=O)/c1=N/Nc1ccccc1 | > 50 µM | > 50 µM | > 50 µM | > 50 µM | – | – | > 50 µM | > 50 µM | > 50 µM | > 50 µM | > 50 µM | > 50 µM | > 50 µM | > 50 µM | > 50 µM | > 50 µM
COc1ccc(-c2ccc(/C=N/n3cn[nH]c3=S)o2)c([N+](=O)[O-])c1 | 50.7 µM | > 100 µM | 32.6 µM | > 100 µM | 25.4 µM | 89.1 µM | 97.1 µM | > 100 µM | 45.5 µM | > 100 µM | – | – | 18 µM | 86.6 µM | – | –
CC1(C)CCSC(/C=C/c2ccccc2)=N1 | – | 38.8 µM | – | 33.1 µM | – | 27.6 µM | – | 36.4 µM | – | > 100 µM | – | – | – | 32.6 µM | – | 35.9 µM
CCC(C)C1NC(=O)C(NC(=O)C(CC(C)C)N(C)C(=O)[C@@H]2CC(O)CN2)C(C)OC(=O)[C@H](Cc2ccc(OC)cc2)N(C)C(=O)[C@@H]2CCCN2C(=O)[C@H](CC(C)C)NC(=O)C(C)C(=O)[C@H](C(C)C)OC(=O)CC1O (some centres not stated) (H-[X9][ξNMeL][ξT][X4]LP[NMeY](Me); ester 3-C) | 0.0561 µM | 1.01 µM and 1.9 µM | – | 1.18 µM and 0.159 µM | – | – | 0.365 µM | 0.559 µM and 1.49 µM | – | 0.349 µM and 0.0464 µM | – | 0.119 µM and 0.166 µM | 0.0873 µM | 1.25 µM and 7.31 µM | – | 0.242 µM and 0.0658 µM
CCOC(=O)C1CCC/C1=N\N=C(N)N (configuration not stated) (tested in a mixture with another compound) | – | > 100 µM | – | > 100 µM | – | > 100 µM | – | > 100 µM | – | > 100 µM | – | > 100 µM | – | > 100 µM | – | –
N#C/C(=C\c1cn(-c2ccccc2)c2ccccc12)C(=O)O | 44 µM | > 100 µM | 53.1 µM | > 100 µM | 27.4 µM | > 100 µM | 95.5 µM | > 100 µM | 71.4 µM | > 100 µM | 31.4 µM | > 100 µM | – | – | 33.9 µM | > 100 µM
CC1C(=O)N=C2C(=CN(Cc3ccccc3)c3ccccc32)C(=O)N1C (configuration not stated) | – | > 100 µM | – | > 100 µM | – | > 100 µM | – | > 100 µM | – | – | – | > 100 µM | – | > 100 µM | – | > 100 µM
CCCCCCN1C(=O)/C(=c2\sc3n(c2=O)C2C(NN=3)N(CC)C(=O)N2CC)c2ccccc21 (configuration not stated) | 1.51 µM | > 50 µM | 1.5 µM | > 50 µM | 1.73 µM | > 50 µM | 2.03 µM | > 50 µM | 2.67 µM | > 50 µM | 0.762 µM | 2.31 µM | 1.72 µM | > 50 µM | – | –
CCCCCCn1c(-c2ccc(C(=O)O/N=C(\N)c3ccc(OC)cc3)cc2)nc(-c2ccccc2)c1-c1ccccc1 | 0.354 µM | 1.23 µM | 2.67 µM | > 100 µM | 1.61 µM | 3.72 µM | – | – | 4.45 µM | > 100 µM | 1.29 µM | 3.09 µM | 1.72 µM | 3.31 µM | 1.12 µM | 2.61 µM
Clc1nc(Cl)c2ncn(C/C=C\Cn3cnc4c(Cl)nc(Cl)nc43)c2n1 | 1.97 µM | 3.46 µM | 1.69 µM | 3.35 µM | 1.39 µM | 3.21 µM | 5.52 µM | 18.4 µM | 7.03 µM | 20.3 µM | 2.73 µM | 7.91 µM | 3.83 µM | 13.5 µM | – | –
[N-]=[N+]=Nc1ncc(-c2ccc(C(F)(F)F)cc2)c(NC2CCCCCC2)n1 | > 10 µM | > 10 µM | > 10 µM | > 10 µM | > 10 µM | > 10 µM | > 10 µM | > 10 µM | > 10 µM | > 10 µM | > 10 µM | > 10 µM | > 10 µM | > 10 µM | – | –
Nc1nc(-n2cccn2)nc(-n2cccn2)c1Br | > 100 µM | > 100 µM | > 100 µM | > 100 µM | > 100 µM | > 100 µM | > 100 µM | > 100 µM | > 100 µM | > 100 µM | 24.6 µM | > 100 µM | – | – | > 100 µM | > 100 µM
COc1ccc(Cl)cc1N1C(=O)C(Cl)=C(Nc2cccc(O)c2)C1=O | 16.9 µM | 48.6 µM | 19.9 µM | 59.9 µM | 19.2 µM | 41.5 µM | 28.7 µM | 94.4 µM | 34.2 µM | > 100 µM | – | – | 11.3 µM | 31.9 µM | – | –
COc1n[n+]([O-])c(C)cc1[N+](=O)[O-] | 5.14 µM | 18.1 µM | – | – | 2.07 µM | 16.2 µM | 19.6 µM | 35.9 µM | – | – | – | – | 2.42 µM | 10.2 µM | 16.2 µM | 35.2 µM
O=[N+]([O-])c1cccc(-c2nc3sccn3c2-c2ccnc(NCCCNS(=O)(=O)c3ccc(F)cc3)n2)c1 | 2.19 µM | 10.8 µM | 2.9 µM | > 100 µM | – | – | 5.63 µM | > 100 µM | 4.17 µM | > 100 µM | 1.58 µM | 6.07 µM | 4.34 µM | > 100 µM | 1.74 µM | > 100 µM
